# Experiment: Approximate pKa value of compound was determined
# Format: physicochemical
# Conditions: not given
row,Approx. pKa,SMILES
1,-3.8,CC/C(=C(\c1ccccc1)c1ccc(OCCn2cccc2)cc1)c1ccccc1

# Same assay, conditions: read-out: Approx. pKa
row,SMILES,pKa
1,CC/C(=C(\c1ccccc1)c1ccc(OCCN2CCN(C)CC2)cc1)c1ccccc1,9.8
2,CC/C(=C(\c1ccccc1)c1ccc(OCCN2CCOCC2)cc1)c1ccccc1,8.7
3,CC/C(=C(\c1ccccc1)c1ccc(OCCCN2CCCC2)cc1)c1ccccc1,11.3
4,CC/C(=C(\c1ccccc1)c1ccc(OCCN=C(N)N)cc1)c1ccccc1,13.7
5,CC/C(=C(\c1ccccc1)c1ccc(OCCN2CCCCC2)cc1)c1ccccc1,11.2
6,CC/C(=C(\c1ccccc1)c1ccc(OCCN(CC)CC)cc1)c1ccccc1,10.9

# Now from value to compound:
row,pKa,SMILES
1,11.3,CC/C(=C(\c1ccccc1)c1ccc(OCCN2CCCC2)cc1)c1ccccc1
2,10.8,CC/C(=C(\c1ccccc1)c1ccc(OCCN(C)C)cc1)c1ccccc1 [TAMOXIFEN]
